Earlier results on one compound are cited in patent publication EP1112064B1, “METHOD FOR PREPARING NOVEL FENOFIBRATE GALENIC FORMULATIONS, GALENIC FORMULATIONS OBTAINED AND APPLICATIONS” (CLL Pharma, Arenas, priority 1998, dated 2000).

Consider `CC(C)OC(=O)C(C)(C)Oc1ccc(C(=O)c2ccc(Cl)cc2)cc1` [fénofibrate, 2-(4-(4-chlorobenzoyl)-phénoxy)-2-méthyl propionate d'isopropyle], for which, where the note is “administered in sunflower oil”, the résorption intestinale result was “presque complète”. For the same compound, where the note is “in vivo”, the “demi-vie d'élimination” value is on record as roughly 20 heures. Moreover, the “dose de fénofibrate administrée résorbée” value (one 300 mg capsule during a meal, reaches the blood as fenofibric acid) is recorded as 60%.
